Test results from patent US6251885A, “Cytotrienins, process for preparing the same and anti-tumor agent” (The Institute of Physical and Chemical Research, priority 1996, dated 2001).
≈ marks a conversion by molar mass, not a printed value.

What was measured:
[1] = system: v-src^ts -NRK cell; test: Activity to revert v-src^ts-NRK cell to normal morphology; type: cell-based, rat; conditions: 32° C., 18 hours; note: key: +: weakly induce normal morphology; + +: induce normal morphology; + + +: highly induce normal morphology
Procedure: Activity of cytotrienins I, II, III and IV to revert v-src^ts -NRK cell (rat renal cell infected with temperature-sensitive Rous sarcoma virus) to normal morphology.
Many oncogenes encode tyrosine kinase. Among them, v-src is believed to encode non-receptor type tyrosine kinase to induce the cell to transformed morphology.
V-src^ts -NRK cell is typically cultured on Eagle's MEM medium containing 10% of bovine serum at 32° C. in a culture chamber which is saturated with 5% of carbon dioxide and steam. At the permissive temperature (32° C.), a series of diluted cytotrienin I, II, III and IV were added. After 18 hours, inducibility to normal morphology was analyzed.

[2] = system: Candida albicans; test: Antimicrobial activity, agar dilution method; type: cell-based; conditions: Sabouraud's medium, 28° C., 2 days
[3] = system: Pyricularia oryzae; test: microbe, parasite or virus in culture; type: cell-based; conditions: for minimum inhibitory concentration (MIC): Sabouraud's medium, 28° C., 2 days
[4] = system: K-562; test: Inhibition of proliferation of cancer cells (MTT), K-562; type: cell-based; conditions: 17 hours; for Inhibitory effect on proliferation, IC50 value (concentration to inhibit 50% of proliferation): K-562 (human chronic myelogenic leukemia cells)
Procedure: (§1) Inhibitory activity for proliferation of cancer cells of cytotrienins I, II, III and IV.
(§2) Human leukocyte cells K562 and HL-60 were incubated on PRM 1640 medium (comprising 10% of bovine serum) in a culture chamber saturated with 5% carbon dioxide and steam. To the medium was added a series of diluted cytotrienin I, II, III and IV. After 17 hours, MTT reagent was added and growth was measured.
K562: Human chronic myelogenic leukemia cells

[5] = system: HL-60; test: Inhibition of proliferation of cancer cells (MTT), HL-60; type: cell-based; conditions: HL-60 (human acute promyelogenic leukemia cells), 17 hours
Procedure: as §1, §2
HL-60: Human acute promyelogenic leukemia cells

[6] = system: Pseudomonas aeruginosa; test: Antimicrobial activity, agar dilution method; type: cell-based; conditions: bouillon medium, 37° C., 1 day
[7] = system: v-src^ts -NRK cell; test: Inhibition of v-src^ts-NRK cell cycle (progress of S phase), flow cytometry; note: key: +: weakly inhibits the progress of S; + +: inhibits the progress of S phase; + + +: strongly inhibits the progress of S phase; type: cell-based, rat; conditions: downshift 39° C. to 32° C., 18 hours
Procedure: Inhibitory activity for cell cycle of cytotrienins I, II, III and IV.
Generally cell divides and proliferates in accordance with a cell cycle including a series of phases such as M phase, G1 phase, S phase and G2 phase. If something happens in the control mechanism of cell cycle, homeostasis breaks and possibility of suffering from cancer or immune disease would increase.
When v--src^ts -NRK cell is cultured at non-permissive temperature (39° C.), the cell cycle stops at G0/G1 phase and if the temperature is downshifted to permissive temperature (32° C.), the cell advances to S phase and then repeats the proliferation. A series of diluted cytotrienin I, II, III and IV were added simlutaneously with the downshift and, after 18 hours, the advancement of cell cycle to S phase was analyzed by flow cytometry.

[8] = system: Escherichia coli BE1186; test: Antimicrobial activity, agar dilution method; type: cell-based; conditions: bouillon medium, 37° C., 1 day
Procedure: Antimicrobial activity of cytotrienins I, II, III and IV
Cytotrienins I, II, III and IV were assayed by the agar dilution method in bouillon medium (examined microorganism; bacteria, 37° C., 1 day) and Sabouraud's medium (examined microorganism: fungus, 28° C., 2 days).

[9] = system: Chlorella vulgaris; test: Antimicrobial activity, agar dilution method; type: cell-based
[10] = system: Staphylococcus aureus; test: Antimicrobial activity, agar dilution method; type: cell-based; conditions: bouillon medium, 37° C., 1 day
[11] = 48 h, read-out: minimum inhibitory concentration (MIC)
[12] = 24 h, read-out: minimum inhibitory concentration (MIC)

| Compound | reversion activity to induce v-src^ts -NRK cell to normal morphology ([1]; 0.1 μg/ml) | reversion activity to induce v-src^ts -NRK cell to normal morphology ([1]; 1 μg/ml) | reversion activity to induce v-src^ts -NRK cell to normal morphology ([1]; 3 μg/ml) | reversion activity to induce v-src^ts -NRK cell to normal morphology ([1]; 10 μg/ml) | minimum inhibitory concentration (MIC) [2] | minimum inhibitory concentration (MIC) [3] | Inhibitory effect on proliferation, IC50 value (concentration to inhibit 50% of proliferation) [4] | Inhibitory effect on proliferation, IC50 value (concentration to inhibit 50% of proliferation) [5] | minimum inhibitory concentration (MIC) [6] | Inhibition effect on v-src^ts -NRK cell cycle ([7]; 0.03 μg/ml) | Inhibition effect on v-src^ts -NRK cell cycle ([7]; 0.1 μg/ml) | Inhibition effect on v-src^ts -NRK cell cycle ([7]; 0.3 μg/ml) | Inhibition effect on v-src^ts -NRK cell cycle ([7]; 1 μg/ml) | Inhibition effect on v-src^ts -NRK cell cycle ([7]; 3 μg/ml) | minimum inhibitory concentration (MIC) [8] | minimum inhibitory concentration (MIC) [9] | minimum inhibitory concentration (MIC) [10] | reversion activity to induce v-src^ts -NRK cell to normal morphology ([1]; 0.3 μg/ml) | further results |
| --- | --- | --- | --- | --- | --- | --- | --- | --- | --- | --- | --- | --- | --- | --- | --- | --- | --- | --- | --- |
| COC1C=CC=CC=CCC(OC(=O)C2(NC(=O)C3CCCCC3)CC2)C(C)C(O)C(C)=CCCC2=CC(=O)C=C(NC(=O)C1)C2=O (centres unmarked) [Cytotrienin IV, cytotrienin IV] | + + | + + + | + + + | + + + | > 100 µg/mL | 12.5 µg/mL (≈ 19.3 µM) | 0.001 µg/mL | 0.001 µg/mL | > 100 µg/mL | + + | + + + | + + + | + + + | + + + | > 100 µg/mL | > 100 µg/mL | > 100 µg/mL | – | – |
| COC1C=CC=CC=CCC(OC(=O)C2(NC(=O)C3=CCCCC3)CC2)C(C)C(O)C(C)=CCCC2=CC(=O)C=C(NC(=O)C1)C2=O (centres unmarked) [Cytotrienin III, cytotrienin III] | + + | + + + | + + + | + + + | > 100 µg/mL | 12.5 µg/mL (≈ 19.3 µM) | 0.005 µg/mL | 0.001 µg/mL | > 100 µg/mL | + + | + + + | + + + | + + + | + + + | > 100 µg/mL | > 100 µg/mL | > 100 µg/mL | + + + | – |
| COC1C=CC=CC=CCC(OC(=O)C2(NC(=O)C3CCCCC3)CC2)C(C)C(O)C(C)=CCCc2cc(O)cc(c2O)NC(=O)C1 (centres unmarked) [Cytotrienin II, cytotrienin II] | + | + + + | + + + | + + + | > 100 µg/mL | 12.5 µg/mL (≈ 19.2 µM) | 0.005 µg/mL | 0.005 µg/mL | > 100 µg/mL | + | + + | + + + | + + + | + + + | > 100 µg/mL | > 100 µg/mL | > 100 µg/mL | + | – |
| COC1C=CC=CC=CCC(OC(=O)C2(NC(=O)C3=CCCCC3)CC2)C(C)C(O)C(C)=CCCc2cc(O)cc(c2O)NC(=O)C1 (centres unmarked) [Cytotrienin I, cytotrienin I] | + | + + + | + + + | + + + | – | – | – | – | – | + | + + | + + + | + + + | + + + | – | – | – | + + | MIC [2, 11]: > 100 µg/mL; MIC [3, 11]: 12.5 µg/mL (≈ 19.3 µM); IC50 ([4]; K562, K-562 (human chronic myelogenic leukemia cells), read-out: Inhibitory effect on proliferation, IC50 value (concentration to inhibit 50% of proliferation)): 0.02 µg/mL (≈ 0.0308 µM); IC50 ([5]; read-out: Inhibitory effect on proliferation, IC50 value (concentration to inhibit 50% of proliferation)): 0.005 µg/mL (≈ 0.00771 µM); MIC [6, 12]: > 100 µg/mL; MIC [8, 12]: > 100 µg/mL; MIC ([9]; read-out: minimum inhibitory concentration (MIC)): > 100 µg/mL; MIC [10, 12]: > 100 µg/mL |
